Measured values published in patent US12421276B2 (priority 2016, dated 2025).

Experiments:
[1] = Plasma stability study, rat plasma; assay type: in vitro ADME; conditions: Rat plasma, 1 μM, 37° C.
How it was run: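 Compounds (1 μM, from 0.3 mM DMSO stock) incubated at 37° C in K2 EDTA plasma, quenched at time points with acetonitrile/methanol/formic acid plus internal standard, and analysed by LC/MS/MS. Disappearance measured relative to 0-min control; t½ derived from elimination rate constant of semi-log % remaining versus time regression.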

Caco-2 cells = experiment: Caco-2 permeability study with or without P-gp inhibitor GF120918; conditions: for Abs. Quotient: (Papp A-B with inhibitor − without inhibitor)/Papp A-B with inhibitor; for Caco-2 Cells Permeability Recovery Rate: 1 hr, pH 7.4
Protocol: Buffer=HBSS, pH 7.4 with 5 mM HEPES
Caco-2 cell plates were obtained commercially and were maintained for 21 days at 37° C. with 5% CO2. Cells were washed with Hank's Balanced Salt Solution (HBSS) 30 min before starting the experiment. Test compound solutions were prepared by diluting from DMSO stock into HBSS buffer in the presence or absence of 10 μM of P-gp inhibitor GF120918. The final DMSO concentration is 0.2%. Prior to each experiment, cell monolayer integrity was verified by transendothelial electrical resistance (TEER). Transport experiment was initiated by adding test compounds to the apical (75 μL) side. Transport plates were incubated at 37° C. in a humidified incubator with 5% CO2. Samples were taken from the donor and acceptor compartments after 1 hr and analyzed by liquid chromatography with tandem mass spectrometry (LC/MS/MS).
Apparent permeability (Papp) values were calculated using the following equation: Papp=(dQ/dt)/A/C0
where dQ/dt is the initial rate of amount of test compound transported across cell monolayer, A is the surface area of the filter membrane, and C0 is the initial concentration of the test compound. C0 is calculated for each condition using a 4-point calibration curve.
Absorption quotient between the two assay conditions was calculated by the following equation:
Absorption quotient (AQ)=(Papp, A-B with inhibitor−Papp, A-B without inhibitor)/Papp, A-B with inhibitor where Papp, A-B with inhibitor and Papp, A-B without inhibitor represent the apparent permeability of test compound from the apical to basal side of the cellular monolayer in the presence and absence of 10 μM P-gp inhibitor GF120918, respectively.
All samples were analyzed on LC/MS/MS using an AB Sciex API 4000 instrument, coupled to a Shimadzu LC-20AD LC Pump system. Analytical samples were separated using a Waters Atlantis T3 dC18 reverse phase HPLC column (10 mm×2.1 mm) at a flow rate of 0.5 mL/min. The mobile phase consisted of 0.1% formic acid in water (solvent A) and 0.1% formic acid in acetonitrile (solvent B).

[2] = +GF120918 (10 μM), 10 μM compound

| SMILES | Plasma Stability Half-Life [1] | Plasma Stability (% Parent Remaining) 0 min [1] | Plasma Stability (% Parent Remaining) 60 min [1] | Plasma Stability (% Parent Remaining) 120 min [1] | Plasma Stability (% Parent Remaining) 240 min [1] | Abs. Quotient (Caco-2 cells) | Caco-2 Cells Permeability Recovery Rate (Caco-2 cells; [2]) | Caco-2 Cells Permeability Recovery Rate (Caco-2 cells; −GF120918, 10 μM compound) |
| --- | --- | --- | --- | --- | --- | --- | --- | --- |
| CCCCCC(=O)NC(Cc1ccc(OC(=O)N2CCN(C)CC2)cc1)C(=O)NC(C(=O)NCCCCCC(N)=O)C(C)CC (stereo not shown) [Compound A20] | 2.617 h | 100% | 73% | 56% | 34% | 0.88 | 90% | 71% |
| CCCCCC(=O)NC(Cc1ccc(OC(=O)NCCN(C)C)cc1)C(=O)NC(C(=O)NCCCCCC(N)=O)C(C)CC (stereo not shown) [Compound A21] | 1.16 h | 100% | 61% | 34% | 9% | 0.50 | 84% | 84% |
